# Results from ChEMBL document CHEMBL1144838, “Use of lantibiotic synthetases for the preparation of bioactive constrained peptides” (Bioorg Med Chem Lett, 2008).
# Non-standard residues stand in square brackets, D forms with d. Residues, ends and D or L forms follow the SMILES beside them. Dha = C=C(N)C(=O)O
# How the values were obtained:
# Mus musculus [1] = organism: Mus musculus; assay: Agonist activity at mu opioid receptor in mouse model; type: functional
# Mus musculus [2] = organism: Mus musculus; assay: Agonist activity at mouse delta opioid receptor in mouse model; type: functional
# Tripeptidyl-peptidase 2 = Tripeptidyl-peptidase 2 (Homo sapiens, UniProt P29144); assay: Inhibition of human tripeptidyl peptidase2 from erythrocytes
# Sequence of Tripeptidyl-peptidase 2 (P29144 whole entry): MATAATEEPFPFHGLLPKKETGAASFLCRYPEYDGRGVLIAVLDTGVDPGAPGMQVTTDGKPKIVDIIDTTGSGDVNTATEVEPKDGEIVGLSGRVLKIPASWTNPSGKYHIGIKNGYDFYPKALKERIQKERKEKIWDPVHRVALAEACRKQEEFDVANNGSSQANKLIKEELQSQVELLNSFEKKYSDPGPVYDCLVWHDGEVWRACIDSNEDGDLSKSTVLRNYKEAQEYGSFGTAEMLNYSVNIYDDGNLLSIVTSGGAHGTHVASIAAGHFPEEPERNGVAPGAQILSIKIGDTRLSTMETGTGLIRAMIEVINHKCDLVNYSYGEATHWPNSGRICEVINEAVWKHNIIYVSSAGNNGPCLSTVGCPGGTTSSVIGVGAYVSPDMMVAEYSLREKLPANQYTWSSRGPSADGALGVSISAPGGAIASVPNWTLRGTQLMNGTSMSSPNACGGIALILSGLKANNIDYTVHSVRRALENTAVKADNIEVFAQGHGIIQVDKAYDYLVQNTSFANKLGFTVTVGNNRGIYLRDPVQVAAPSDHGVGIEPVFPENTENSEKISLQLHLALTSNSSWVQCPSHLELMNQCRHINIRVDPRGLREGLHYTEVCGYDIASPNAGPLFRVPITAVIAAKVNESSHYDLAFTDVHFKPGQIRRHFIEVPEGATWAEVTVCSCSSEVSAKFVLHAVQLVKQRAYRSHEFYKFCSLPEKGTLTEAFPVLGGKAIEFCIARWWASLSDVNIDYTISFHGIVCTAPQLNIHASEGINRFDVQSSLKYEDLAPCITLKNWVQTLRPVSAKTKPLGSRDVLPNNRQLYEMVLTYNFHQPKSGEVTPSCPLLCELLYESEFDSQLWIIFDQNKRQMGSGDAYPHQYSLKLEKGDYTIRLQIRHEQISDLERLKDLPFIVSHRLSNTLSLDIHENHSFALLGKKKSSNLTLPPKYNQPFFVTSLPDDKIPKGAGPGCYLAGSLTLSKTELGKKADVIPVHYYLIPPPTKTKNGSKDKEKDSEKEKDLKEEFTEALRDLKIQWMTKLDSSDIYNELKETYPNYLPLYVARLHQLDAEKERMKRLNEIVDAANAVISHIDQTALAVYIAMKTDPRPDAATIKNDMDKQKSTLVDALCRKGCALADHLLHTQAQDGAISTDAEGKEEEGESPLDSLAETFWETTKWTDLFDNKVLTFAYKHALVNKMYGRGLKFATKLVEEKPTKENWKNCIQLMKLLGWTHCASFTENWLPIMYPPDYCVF
Structure (SMILES),ED50 (Mus musculus [1]),ED50 (Mus musculus [2]),Ki (Tripeptidyl-peptidase 2)
N[C@@H](Cc1ccc(O)cc1)C(=O)N[C@@H]1CSC[C@@H](C(=O)O)NC(=O)[C@H](Cc2ccccc2)NC(=O)CNC1=O,0.0018 nM,0.0018 nM,
C=C(NC(=O)[C@H](C)NC(=O)[C@@H](N)CCCNC(=N)N)C(=O)N[C@H](C(=O)N[C@@H](C)C(=O)O)C(C)C (H-RA[Dha]VA-OH),,,20 nM
CN1CC[C@]23c4c5ccc(O)c4O[C@H]2[C@@H](O)C=C[C@H]3[C@H]1C5 [MORPHINE],15 nM,15 nM,
